US20260144788A1, “COMPOUND FOR SHP2 PROTEIN DEGRADATION AND MEDICAL USES THEREOF” (UBIX THERAPEUTICS, INC., priority 2022, published 2026)

Target: T1, SHP2 protein (Homo sapiens, UniProt Q06124)
T1 sequence (Q06124 1-593): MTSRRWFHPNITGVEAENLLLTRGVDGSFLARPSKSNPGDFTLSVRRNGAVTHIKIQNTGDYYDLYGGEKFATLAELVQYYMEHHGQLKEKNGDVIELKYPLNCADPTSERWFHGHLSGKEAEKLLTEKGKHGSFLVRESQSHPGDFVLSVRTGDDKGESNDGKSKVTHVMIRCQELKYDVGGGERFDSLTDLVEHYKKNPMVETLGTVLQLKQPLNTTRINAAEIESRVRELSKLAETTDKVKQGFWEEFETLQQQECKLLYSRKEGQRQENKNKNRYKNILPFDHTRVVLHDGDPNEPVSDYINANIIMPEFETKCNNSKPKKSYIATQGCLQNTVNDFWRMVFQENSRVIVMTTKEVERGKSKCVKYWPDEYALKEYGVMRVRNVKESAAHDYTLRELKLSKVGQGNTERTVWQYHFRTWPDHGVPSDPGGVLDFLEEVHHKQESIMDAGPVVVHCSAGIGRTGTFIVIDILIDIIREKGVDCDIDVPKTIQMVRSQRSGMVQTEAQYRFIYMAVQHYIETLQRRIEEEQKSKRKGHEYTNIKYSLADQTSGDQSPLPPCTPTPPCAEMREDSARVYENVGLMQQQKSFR
Test: Measurement of SHP2 protein degradation in MV-4-11 cells (western blotting)
Type: cell-based
Parameters: endogenous in cells
Conditions: harvested after 24 hours
Method in brief: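 MV-4-11 cells in IMDM/5% FBS were exposed to compound at final 0.01, 0.1, 1 μM or 0.001, 0.01, 0.1 μM for 24 h, DMSO as negative control. BCA-normalised lysates were immunoblotted for SHP2 with GAPDH as loading control, read on LI-COR Odyssey.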

SMILES	SHP2% degradation (0.01 μM) [%]	SHP2% degradation (0.1 μM) [%]
Cc1ncsc1-c1ccc(CNC(=O)[C@@H]2C[C@@H](O)CN2C(=O)[C@@H](NC(=O)C2(F)CC2)C(C)(C)C)c(OC2CCN(C(=O)CC3(O)CCN(c4nccc(Sc5cnc(N6CCC(C)(CN)CC6)cn5)c4Cl)CC3)CC2)c1 [Example 72, (2S,4R)—N-(2-((1-(2-(1-(4-((5-(4-(aminomethyl)-4-methylpiperidin-1-yl)pyrazin-2-yl)thio)-3-chloropyridin-2-yl)-4-hydroxypiperidin-4-yl)acetyl)piperidin-4-yl)oxy)-4-(4-methylthiazol-5-yl)benzyl)-1-((S)-2-(1-fluorocyclopropane-1-carboxamido)-3,3-dimethylbutanoyl)-4-hydroxypyrrolidine-2-carboxamide]	91.5	99.8
Cc1ncsc1-c1ccc(CNC(=O)[C@@H]2C[C@@H](O)CN2C(=O)[C@@H](NC(=O)C2(F)CC2)C(C)(C)C)c(OC2CN(C(=O)C3CCN(c4nccc(Sc5cnc(N6CCC(C)(CN)CC6)cn5)c4Cl)CC3)C2)c1 [Example 73, (2S,4R)—N-(2-((1-(1-(4-((5-(4-(aminomethyl)-4-methylpiperidin-1-yl)pyrazin-2-yl)thio)-3-chloropyridin-2-yl)piperidine-4-carbonyl)azetidin-3-yl)oxy)-4-(4-methylthiazol-5-yl)benzyl)-1-((S)-2-(1-fluorocyclopropane-1-carboxamido)-3,3-dimethylbutanoyl)-4-hydroxypyrrolidine-2-carboxamide]	65.8	97.7
CC(=O)N[C@H](C(=O)N1C[C@H](O)C[C@H]1C(=O)NCc1ccc(-c2scnc2C)cc1OC1CCN(C(=O)[C@H]2C[C@@H](Nc3nccc(Sc4cnc(N5CCC(C)(CN)CC5)cn4)c3Cl)C2)CC1)C(C)(C)C [Example 74, (2S,4R)-1-((S)-2-acetamido-3,3-dimethylbutanoyl)-N-(2-((1-((1S,3R)-3-((4-((5-(4-(aminomethyl)-4-methylpiperidin-1-yl)pyrazin-2-yl)thio)-3-chloropyridin-2-yl)amino)cyclobutanecarbonyl)piperidin-4-yl)oxy)-4-(4-methylthiazol-5-yl)benzyl)-4-hydroxypyrrolidine-2-carboxamide]	97.0	99.8
CC(=O)N[C@H](C(=O)N1C[C@H](O)C[C@H]1C(=O)NCc1ccc(-c2scnc2C)cc1OC1CCN(C(=O)C2CCN(c3nccc(Sc4cnc(N5CCC(C)(CN)CC5)cn4)c3Cl)CC2)CC1)C(C)(C)C [Example 75, (2S,4R)-1-((S)-2-acetamido-3,3-dimethylbutanoyl)-N-(2-((1-(1-(4-((5-(4-(aminomethyl)-4-methylpiperidin-1-yl)pyrazin-2-yl)thio)-3-chloropyridin-2-yl)piperidine-4-carbonyl)piperidin-4-yl)oxy)-4-(4-methylthiazol-5-yl)benzyl)-4-hydroxypyrrolidine-2-carboxamide]	97.0	99.3
Cc1ncsc1-c1ccc([C@H](C)NC(=O)[C@@H]2C[C@@H](O)CN2C(=O)[C@@H](NC(=O)C2(F)CC2)C(C)(C)C)c(OC2CCN(C(=O)C3CCN(c4nccc(Sc5cnc(N6CCC(C)(CN)CC6)cn5)c4Cl)CC3)CC2)c1 [Example 86, (2S,4R)—N—((S)-1-(2-((1-(1-(4-((5-(4-(aminomethyl)-4-methylpiperidin-1-yl)pyrazin-2-yl)thio)-3-chloropyridin-2-yl)piperidine-4-carbonyl)piperidin-4-yl)oxy)-4-(4-methylthiazol-5-yl)phenyl)ethyl)-1-((S)-2-(1-fluorocyclopropane-1-carboxamido)-3,3-dimethylbutanoyl)-4-hydroxypyrrolidine-2-carboxamide]	81.9	99.9
CC(=O)N[C@H](C(=O)N1C[C@H](O)C[C@H]1C(=O)N[C@@H](C)c1ccc(-c2scnc2C)cc1OC1CCN(C(=O)C2CCN(c3nccc(Sc4cnc(N5CCC(C)(CN)CC5)cn4)c3Cl)CC2)CC1)C(C)(C)C [Example 87, (2S,4R)-1-((S)-2-acetamido-3,3-dimethylbutanoyl)-N—((S)-1-(2-((1-(1-(4-((5-(4-(aminomethyl)-4-methylpiperidin-1-yl)pyrazin-2-yl)thio)-3-chloropyridin-2-yl)piperidine-4-carbonyl)piperidin-4-yl)oxy)-4-(4-methylthiazol-5-yl)phenyl)ethyl)-4-hydroxypyrrolidine-2-carboxamide]	95.8	100.0
